Assay results as given in patent US20110269626A1, “HERBICIDAL COMPOSITIONS COMPRISING HPPD-INHIBITORS AND METHODS OF CONTROLLING WEEDS IN TURFGRASSES” (priority 2008, published 2011).

How the values were obtained:
Format in all cases: in vivo
[1] = system: warm season turfgrasses; assay: Safening of liquid mesotrione formulation on warm season turfgrasses (conclusion from Tables 1 and 2); conditions: safener applied in combination with a liquid formulation of mesotrione to warm season turfgrasses
Text: (§1) A liquid formulation of mesotrione (Callisto®) was applied to bermudagrass (Cynodon dactylon×C. dactylon) and zoysia grass (Zoysia matrella) by spray application, with and without safeners, at various rates as show in the table below. Assessments were made at 7, 14 and 21 days after application, to determine percentage growth inhibition, an percentage toxicity (chlorosis and/or burning).

[2] = system: zoysia grass (Zoysia matrella); assay: Spray application of liquid mesotrione formulation (Callisto) with and without safeners to zoysia grass; percentage toxicity (chlorosis and/or burning)
Text: as §1

[3] = system: bermudagrass (Cynodon dactylon×C. dactylon); assay: Spray application of liquid mesotrione formulation (Callisto) with and without safeners to bermudagrass; percentage toxicity (chlorosis and/or burning)
Text: as §1

[4] = herbicide 140 g ai/ha, safener 70 g ai/ha or none, 7 DAA
[5] = herbicide 140 g ai/ha, safener 70 g ai/ha or none, 14 DAA
[6] = herbicide 140 g ai/ha, safener 70 g ai/ha or none, 21 DAA
[7] = herbicide 280 g ai/ha, safener 140 g ai/ha or none, 7 DAA
[8] = herbicide 280 g ai/ha, safener 140 g ai/ha or none, 14 DAA
[9] = herbicide 280 g ai/ha, safener 140 g ai/ha or none, 21 DAA

safening [1]	Compound	Percentage toxicity [2, 4] [%]	Percentage toxicity [2, 5] [%]	Percentage toxicity [2, 6] [%]	Percentage toxicity [2, 7] [%]	Percentage toxicity [2, 8] [%]	Percentage toxicity [2, 9] [%]	Percentage toxicity [3, 4] [%]	Percentage toxicity [3, 5] [%]	Percentage toxicity [3, 6] [%]	Percentage toxicity [3, 7] [%]	Percentage toxicity [3, 8] [%]	Percentage toxicity [3, 9] [%]
Particularly good safening	CNC(=O)Nc1ccc(S(=O)(=O)NC(=O)c2ccccc2OC)cc1 [Formula IV]	–	–	–	–	–	–	–	–	–	–	–	–
–	CS(=O)(=O)c1ccc(C(=O)C2C(=O)CCCC2=O)c([N+](=O)[O-])c1 [Mesotrione, 2-(2′-nitro-4′-methylsulphonylbenzoyl)-1,3-cyclohexanedione]	10	40	50	15	50	70	30	10	20	60	50	50
